Laboratory results: PubChem BioAssay AID179 (DTP/NCI, 2004)
pEC50, pIC50: −log10 of the molar value. Activity calls are given as the source filed them.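 How the source made its calls: active means compounds giving half or more protection of infected cells from virus-caused growth loss, again on retest; inactive means the rest.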 *1 amine or outer side, *2 acyl side, *3 side chain or, on linkers, in order; H or OH if unused. Where a SMILES comes first, the peptide text is derived from it. [ ]: non-standard residue; d: D form. X7 = NC(N)=NCC(O)CC(N[*:1])C(=O)[*:2]; Orn = NCCC[CH](N)C(=O)O

Test system: CEM cells HIV-1 protection, formazan growth assay
Assay: NCI AIDS Antiviral Assay
Details: for pIC50: measured here: growth of uninfected CEM cells
Procedure, shortened: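 Protection of CEM cells against HIV-1 measured as cell growth via soluble formazan read-out, with five concentrations tested on both infected and uninfected cells; failure to protect may reflect toxicity.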

SMILES | pEC50 | pIC50 | outcome
O=C1NC(=O)C(CC(C(=O)C(=O)Nc2ccccc2Cl)C(=O)c2ccc3ccccc3c2)C(=O)N1 (configuration not stated) | < 4.42 | < 4.42 | –
CC1=NN2C(c3ccc([N+](=O)[O-])cc3)=CSC2=NC(C)(C)C1 | < 3.80 | < 3.80 | –
CC(=O)N1[C@H](C(=O)O)CS[C@H]1c1ccncc1 | – | – | inactive
O=c1oc2c(c(=O)n1-c1ccccc1)CC1(CCCCC1)C2 | < 3.70 | < 3.70 | –
Cc1cc(=O)[nH]c(-n2[nH]c3c(c2=O)CCCC3)n1 | < 3.70 | 4.61 | –
O=C(CC(=O)Nc1ccc(C(=O)O)cc1)Nc1ccc(C(=O)O)cc1 | < 3.70 | < 3.70 | –
CC(O)C(NC(=O)C(CCCN)NC(=O)C(CC(O)CN=C(N)N)NC(=O)C(N)CCCN=C(N)N)C(=O)NC(CCCN)C(=O)NC(CC(O)CN=C(N)N)C(=O)NC(Cc1ccc(O)cc1)C(=O)O (configuration not stated) (tested in a mixture with another compound) (H-R[X7][Orn]T[Orn][X7]Y-OH; configuration not given here) | < 4.32 | 4.40 | –
O=C(CSc1nc(-c2ccccc2)c(-c2ccccc2)[nH]1)N/N=C/c1ccc(O)cc1 | < 4.36 | 5.01 | –
CC(=O)Oc1ccn2nc(C)c(Br)c2c1Br | < 3.70 | 4.44 | –
CC(=O)OCC1OC(n2c(C)cc(-c3ccc(Cl)cc3)c(C#N)c2=S)C(OC(C)=O)C(OC(C)=O)C1OC(C)=O (configuration not stated) | < 3.70 | 4.52 | –
COc1ccccc1NC(=S)NNC(=O)c1cc(-c2ccccc2)nc2ccccc12 | < 3.70 | 4.94 | –
CCC(=O)NC(Nc1cccc(F)c1C)(C(F)(F)F)C(F)(F)F | < 3.70 | < 3.70 | –
COc1cc2cc(C(=O)N3CC(CCl)c4c3cc([N+](C)(C)Cc3ccc([N+](=O)[O-])n3C)c3ccccc43)[nH]c2c(OC)c1OC (configuration not stated) | < 5.70 | 5.90 | –
N#CC(NC12CC3CC(CC(C3)C1)C2)c1ccccc1 (configuration not stated) | – | – | inactive
CC1CNC(=S)SSC(=S)N1 (configuration not stated) | < 3.70 | 4.60 | –
O=C(O)CCCCCCCCC(=O)O | < 3.75 | < 3.75 | –
Cc1cc2c(C(C)C)c(O)c(O)c(C=Nc3ccccc3S)c2c(O)c1-c1c(C)cc2c(C(C)C)c(O)c(O)c(C=Nc3ccccc3S)c2c1O | < 3.70 | 4.79 | –
CCOC(=O)/C(C#N)=C(O)/C(=C\c1ccc(Br)cc1)NC(=O)c1ccccc1 | < 3.25 | < 3.25 | –
CCCC(=O)Nc1ccc2c(ccn2COC)c1 | < 3.70 | < 3.70 | –
[O-][n+]1onc2c1-c1nonc1CC2 | < 3.70 | 4.57 | –

SMILES | pEC50 | pIC50 | outcome
CC(=O)OCC1OC(OCC2OC(N3C(=S)N[C@H]([C@@H](O)[C@H](O)[C@H](O)CO)[C@H]3O)C(OC(C)=O)C(OC(C)=O)C2OC(C)=O)C(OC(C)=O)C(OC(C)=O)C1OC(C)=O (some centres not stated) | < 4.00 | < 4.00 | –
CCOC(=S)/C=C/c1ccccc1 | – | – | inactive
Cn1c(=O)cc(O)c2ccccc21 | < 3.70 | < 3.70 | –
COc1ccc(C2c3c(-c4ccccc4)nn(-c4ccccc4)c3Oc3ncn(N)c(=N)c32)cc1OC (configuration not stated) | < 3.70 | 4.52 | –
O=c1oc2c/c(=C\c3ccccn3)c(=O)c3cccc1c3-2 | < 3.70 | 5.43 | –
O=c1[nH]c2cc(Cl)ccc2c2ccc(Cl)cc12 | < 3.70 | < 3.70 | –
O=C1C(/C=N\C(=S)NCc2ccccc2)=C(O)c2ccccc21 | < 3.70 | 4.17 | –
Cc1cc(=O)c2c(O)c3c(O)cc(O)c4c5c(O)cc(O)c6c(O)c7c(=O)cc(C)c8c1c2c(c34)c(c65)c78 | < 4.00 | – | –
COc1ccc2[nH]c3c4c(ccc3c2c1)C(=O)C=CC4=O | < 4.03 | 5.35 | –
CC(SCC(=O)O)=[N+]1CCCCC1 | < 3.05 | < 3.05 | –
CC(=O)c1c2c(cc3c1CC1(Cc4ccccc4C1=O)C3)CCC2 (configuration not stated) | < 3.70 | 4.75 | –
COc1cc2c3cc1Oc1c(O)c(OC)cc4c1C(Cc1ccc(O)c(c1)Oc1ccc(cc1)CC3N(C)CC2)N(C)CC4 (configuration not stated) | – | – | inactive
COc1ccc(Nc2nc3cc(C(F)(F)F)ccc3nc2-c2ccccc2)cc1OC | < 4.51 | < 4.51 | –
O=C(c1cc(=O)c2ccc(O)cc2o1)c1ccc(Cl)cc1Cl | < 3.69 | 4.73 | –
O=C1c2ccccc2C2CCC1c1ccccc12 (configuration not stated) | < 4.49 | 4.58 | –
Cc1csc2nc(-c3ccco3)nn12 | < 3.70 | < 3.70 | –
NC(Cc1cc(O)c(O)c(S(=O)(=O)c2ccccc2)c1)C(=O)O (configuration not stated) | – | – | inactive
O=[N+]([O-])c1ccc(S(=O)(=O)N=Ic2ccccc2)cc1 | < 3.70 | < 3.70 | –
COC1/C=C/OC2(C)Oc3c(C)c(O)c4c(c3C2=O)C(=O)C=C(NC(=O)/C(C)=C\C=C\C(C)C(OC=O)C(C)C(O)C(C)C(OC(C)=O)C1C)C4=O (configuration not stated) | < 3.70 | 5.13 | –
CC(C)c1oc(=O)cc2c1C(O)C1OC(=O)C3(C)C(O)C4OC4C2(C)C13 (configuration not stated) | < 4.44 | 6.77 | –

SMILES | pEC50 | pIC50 | outcome
CC(C)(C)CC1=COC(C=O)(CC(C)(C)C)CC1 (configuration not stated) | < 3.99 | < 3.99 | –
C=C(Br)CN(CC(=C)Br)C(C)=O | < 3.70 | < 3.70 | –
CN(C)c1ccc(/C=N/NS(=O)(=O)c2ccc(N)cc2)cc1 | < 3.67 | < 3.67 | –
O=c1nc(Nc2cccc(Cl)c2)oc2cc(Cl)oc(=O)c12 | < 4.10 | 4.94 | –
COc1ccc(C2CC(=O)CC(c3ccc(OC)cc3)C23C(=O)CCCC3=O)cc1 (configuration not stated) | < 3.70 | < 3.70 | –
O=c1ccn2n1Cc1ccccc1C2 | < 3.70 | < 3.70 | –
O=C1C(=O)C(c2ccccc2)S(=O)(=O)C1c1ccccc1 (configuration not stated) | – | – | inactive
CC[C@@H]1C[C@H]2CC3c4[nH]c5ccc(O)cc5c4CCN(C2)C31 | < 3.43 | 4.03 | –
COC(=O)C1(C)C=C(Nc2ccccc2)C(=O)N1c1ccccc1 (configuration not stated) | < 5.21 | < 5.21 | –
C1=Nc2ccc(cc2)N=Cc2ccc(cc2)OCc2cccc(n2)COc2ccc1cc2 | < 4.00 | < 4.00 | –
CN/N=C(/CC(=O)c1sc(-n2nc(-c3ccccc3)cc2-c2ccccc2)nc1C)C(=O)Nc1ccc(Cl)c(Cl)c1 | < 3.95 | < 3.95 | –
CCN(CC)CC1CCCCN1CC(=O)N1c2cc(Cl)ccc2NC(=O)CC1C (configuration not stated) | 4.01 | < 3.70 | –
Cc1ccc(S(=O)(=O)N2CCSCCSCCN(S(=O)(=O)c3ccc(C)cc3)CCN(S(=O)(=O)c3ccc(C)cc3)CC2)cc1 | < 4.85 | < 4.85 | –
COc1ccc(NC(=O)CC(=O)n2nc(-c3ccccc3)c(N=Nc3ccccc3C(=O)O)c2-c2ccccc2)cc1 | < 4.75 | < 4.75 | –
S=C1CSc2c(ccc3ccccc23)N1 | < 3.70 | 3.85 | –
C[N+]1(C)C/C(=C\C=C\c2ccccc2)C(=O)/C(=C/C=C/c2ccccc2)C1 | < 5.11 | < 5.11 | –
N#Cc1ccc(S(=O)(=O)c2ccc(C#N)cc2)cc1 | < 3.70 | < 3.70 | –
N=C(N)N1CCc2ccccc2C1 | < 3.70 | < 3.70 | –
CCCCN(CCCC)/N=C/c1c2c(O)c3c(O)c(C)c4c(c3c1O)C(=O)C(C)(O/C=C/C(OC)C(C)C(OC(C)=O)C(C)C(O)C(C)C(O)C(C)/C=C/C=C(C)C(=O)N2)O4 (configuration not stated) | < 3.70 | 5.04 | –
CCCCOC(=O)C1CN2C=CC=NC2=NC1(C(F)(F)F)C(F)(F)F (configuration not stated) | – | – | inactive
